Each structure is given as a SMILES string.

The values below come from patent US8664203B2, “Thiazole derivatives and their use as P2Y12 receptor antagonists” (Actelion Pharmaceuticals Ltd., priority 2009, dated 2014).

T1 sequence (Q9H244 whole entry): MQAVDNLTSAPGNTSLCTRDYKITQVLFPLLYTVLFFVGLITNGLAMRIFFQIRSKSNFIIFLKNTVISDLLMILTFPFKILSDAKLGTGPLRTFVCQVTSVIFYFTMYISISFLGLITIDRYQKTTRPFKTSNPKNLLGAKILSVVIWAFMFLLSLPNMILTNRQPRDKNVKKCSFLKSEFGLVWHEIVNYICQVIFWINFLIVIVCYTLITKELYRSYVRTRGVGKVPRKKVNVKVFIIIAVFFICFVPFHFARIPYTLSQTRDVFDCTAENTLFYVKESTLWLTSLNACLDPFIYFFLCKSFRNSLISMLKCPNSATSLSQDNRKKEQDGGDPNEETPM

The assay concerns the target T1, human P2Y12 receptor (Homo sapiens, UniProt Q9H244).
T1 construct: expressed in transfected cells; host or cells: CHO cells
The assay is described as follows: P2Y12 receptor binding assay. As to conditions: CHO cells with recombinant expression of the human P2Y12 receptor; tritium-labeled 2-methyl-S-ADP; RT, 2 hours. The protocol:
P2Y12 Receptor Binding Assay
Chinese Hamster Ovary (CHO) cells with recombinant expression of the human P2Y12 receptor were cultured in 24 well cell-culture plates. Cells were washed three times with binding buffer (50 mM Tris pH 7.4, 100 mM NaCl, 1 mM EDTA, 0.5% BSA). The cells were then incubated with 0.5 ml per well binding buffer containing tritium-labeled 2-methyl-thio-adenosine 5′-diphosphate (2-methyl-S-ADP) (between 100′000 and 300′000 dpm per well) and various concentrations of test compounds. After incubation at RT for 2 hours, cells were washed three times with binding buffer. Then, cells were solubilized by addition of 0.5 ml solubilization buffer (SDS, NaOH, EDTA). The content of each well was then transferred into beta-counter vials and 2.0 ml of Ultima Gold Scintillation liquid was added.
Take `CCCCOC(=O)N1CCN(C(=O)[C@H](CP(=O)(OCOC(C)=O)OCOC(C)=O)NC(=O)c2csc(-c3ccccc3)n2)CC1` [Example 57, 4-{(R)-3-[Bis-(acetoxymethoxy)-phosphoryl]-2-[(2-phenyl-thiazole-4-carbonyl)-amino]-propionyl}-piperazine-1-carboxylic acid butyl ester]: the IC50 stood at 5 nM.
Then `CCCCOC(=O)N1CCN(C(=O)[C@H](CP(=O)(N[C@@H](C)C(=O)OCC)N[C@@H](C)C(=O)OCC)NC(=O)c2csc(-c3ccccc3)n2)CC1` [Example 58, N,N′-Bis-((S)-1-Ethoxycarbonylethyl)-(R)-2-[(2-phenyl-thiazole-4-carbonyl)-amino]-3-oxo-3-(4-butoxy-carbonyl-piperazin-1-yl)-propyl-phosphonic acid diamide], with 1220 nM; and `CCCCOC(=O)N1CCN(C(=O)[C@H](CP(=O)(OCOC(=O)OCC)OCOC(=O)OCC)NC(=O)c2csc(-c3ccccc3)n2)CC1` [Example 59, 4-{(R)-3-[Bis-(ethoxycarbonyloxymethoxy)-phosphoryl]-2-[(2-phenyl-thiazole-4-carbonyl)-amino]-propionyl}-piperazine-1-carboxylic acid butyl ester], with 15 nM.
Turning to `CCCCCCN(C)c1sc(C(=O)NCC(=O)N2CCN(C(=O)OCCCC)CC2)nc1-c1ccccc1` [Example 60, 4-(2-{[5-(Hexyl-methyl-amino)-4-phenyl-thiazole-2-carbonyl]-amino}-acetyl)-piperazine-1-carboxylic acid butyl ester], the IC50 amounted to 1560 nM.
For the compound `CCCCOC(=O)N1CCN(C(=O)CNC(=O)c2nc(-c3ccccc3)sc2NCCC(=O)O)CC1` [Example 61, 4-(2-{[5-(2-Carboxy-ethylamino)-2-phenyl-thiazole-4-carbonyl]-amino}-acetyl)-piperazine-1-carboxylic acid butyl ester], the IC50 stood at 71 nM.
Regarding `CCCCOC(=O)N1CCN(C(=O)CNC(=O)c2nc(-c3ccccc3)sc2NCCC(=O)OCC)CC1` [Example 62, 4-(2-{[5-(2-Ethoxycarbonyl-ethylamino)-2-phenyl-thiazole-4-carbonyl]-amino}-acetyl)-piperazine-1-carboxylic acid butyl ester], the IC50 is 134 nM.
